{"source": "patent US20250352555A1", "about": "“METHOD OF INCREASING IMMUNE CELL ACTIVATION AND/OR TREATING CANCER USING DIBENZOXAZEPINONES” (VASCULAR THERAPEUTICS PTY LTD, priority 2022, published 2025)", "tested_on": "p-ERK", "experiment": "Western blotting time course for p-ERK, Jurkat T cells", "type": "cell-based, human", "conditions": "Western blot time course", "protocol": "Western blotting. Cells were treated with compounds and times indicated and total cell lysates were prepared in RIPA buffer. Lysates (10 μg) were resolved by SDS-PAGE and transferred to Immobilon-P polyvinylidene difluoride (PVDF) membranes (Millipore, USA).\nMembranes were blocked with 5% skim milk and incubated with rabbit monoclonal anti-c-Jun (Abcam, cat. no. ab32137; mouse, rat and human reactive) antibody, rabbit monoclonal anti-PD-1 (Abcam, cat. no. ab214421) antibody, mouse monoclonal β-actin antibody (Sigma-Aldrich, cat. no. A5316), anti-phospho-SAPK/JNK (Thr^183/Tyr^185) (98F2) (CST, cat. no. 4671) antibody, anti-phospho-p44/42 MAPK (ERK1/2) (Thr^202/Tyr^204) (D13.14.4E) (CST, cat. no. 4370) antibody, anti-phospho-p38 MAPK (Thr^180/Tyr^182) (D3F9) (CST, cat. no. 4511) antibody, anti-SAPK/JNK antibody (CST, cat. no. 9252), anti-p44/42 MAPK (ERK1/2) (137F5) antibody (CST, cat. no. 4695), anti-p38 MAPK antibody (CST, cat. no. 9212), anti-DUSP8 antibody (Abcam, cat. no. ab198175) or anti-c-MAF (BLR045F) antibody (Abcam, cat. no. ab243901). […] Chemiluminescence was detected using the Western Lightning Chemiluminescence system (Thermo Scientific, USA) and ImageQuant™ LAS 4000 biomolecular imager (GE Healthcare Life Sciences, USA). Band intensity in images generated with the LAS 4000 was quantified using NIH Image J. […]", "data": [{"smiles": "CCOC(=O)Nc1ccc2c(c1)C(=O)N(CC)c1ccccc1O2", "note": "[BT2, (10-ethyl-11-oxo-10,11-dihydro-dibenzo[b,f][1,4]oxazepin-2-yl)-carbamic acid ethyl ester]", "values": [{"measurement": "levels of ERK phosphorylation", "value": "no effect"}]}]}
